# According to US20220105058A1, “USE OF 3-O-SULFAMATE-16,16-DIMETHYL-D-HOMOEQUILENIN TO TREAT ONCOLOGICAL DISEASES” (priority 2018, published 2022):
# Values joined by “and” are separate entries in the source; they are usually repeats but may differ in a detail not shown here. Equal entries are not always repeated. “Also recorded” adds a separate entry of the source. Where two headings read alike, the source gives them in different places.
# Experiments:
# [1] = test system: subcutaneous xenografts of human TNBC-Kad breast cancer
# Experimental: (§1) A comparative study of the medicaments in vivo was performed in female Balb/c nude mice with subcutaneously (s.c.) transplanted tumor cells. The experiment lasted for 29 days after the medicament administration for the first time (the administration of the medicaments was started on Day 5 after the tumor strain transplantation).
# (§2) The medicament and the reference drug were administered intragastrically multiple times at doses of 30 mg/kg and 10 mg/kg daily for 21 days.
# (§3) The placebo group was given 1% starch solution intragastrically in equivalent volumes and in the same regime. Tumor nodes were measured 2 times per week. […] Once the treatment was completed, the last tumor measurement was carried out, and animals were weighed and euthanized.
# (§4) The animals were weighed on the first day of the experiment, and then 2 times per week throughout the experiment according to the research protocol.
# (§5) A tumor node was measured after tumor transplantation 2 times per week throughout the experiment. The tumor node volume was determined by the formula:
# (§6) V=π/6*L*W*H, where L, W, H are the linear size dimensions of the tumor.
# (§7) Determination of Antitumor Activity
# (§8) Tumor growth inhibition index (TGI) was used as a criterion for the study of the medicament efficacy and calculated by the formula as follows:
# (§9) TGI (%)=|Vctrl−Vexp|/Vctrl*100
# (§10) where Vctrl and Vexp are the average tumor volume (mm^3) in the control and in the experimental groups, respectively.
# (§11) After the course of the treatment, the animals were euthanized by the cervical dislocation of cervical vertebrae.
# (§12) The statistical data processing was conducted using SPSS 21 package (license No. 20130626-3). Descriptive statistics in the study includes the following: arithmetic average, standard deviation (SD), standard mean error (SE), median, quartiles, interquartile range. To compare quantitative characteristics in the groups, the Mann-Whitney-Wilcoxon test was used without corrections for multiple comparisons. The results were considered statistically significant at p<0.05.
# [2] = test system: subcutaneous xenografts of human SKBR-3 breast cancer
# Experimental: as §1, §2, §3, §4, §5, §6, §7, §8, §9, §10, §11, §12
structure (smiles),measurement,setting,value
CC/C(=C(\c1ccccc1)c1ccc(OCCN(C)C)cc1)c1ccccc1 [Tamoxifen],tumor growth inhibition over the entire observation period,[1]; Tamoxifen 10 mg/kg,no tumor growth inhibition was detected; also recorded: is not effective
same,average tumor volume (M ± m),"[1]; Tamoxifen 10 mg/kg, Day 0",2.3±0.8 mm^3 and 2.33 ± 0.76 mm^3
same,average tumor volume (M ± m),"[1]; Tamoxifen 10 mg/kg, Day 3",25.61 ± 5.56 mm^3
same,"TNBC_Kad growth inhibition, TGI","[1]; Tamoxifen 10 mg/kg, Day 7",0.5%
same,average tumor volume (M ± m),"[1]; Tamoxifen 10 mg/kg, Day 7",79.17 ± 18.80 mm^3
same,"TNBC_Kad growth inhibition, TGI","[1]; Tamoxifen 10 mg/kg, Day 10",−20.7%
same,average tumor volume (M ± m),"[1]; Tamoxifen 10 mg/kg, Day 10",122.09 ± 27.84 mm^3
same,"TNBC_Kad growth inhibition, TGI","[1]; Tamoxifen 10 mg/kg, Day 14",−18.4%
same,average tumor volume (M ± m),"[1]; Tamoxifen 10 mg/kg, Day 14",193.24 ± 54.10 mm^3
same,"TNBC_Kad growth inhibition, TGI","[1]; Tamoxifen 10 mg/kg, Day 17",−22.6%
same,average tumor volume (M ± m),"[1]; Tamoxifen 10 mg/kg, Day 17",237.32 ± 77.07 mm^3
same,"TNBC_Kad growth inhibition, TGI","[1]; Tamoxifen 10 mg/kg, Day 21",−7.9%
same,average tumor volume (M ± m),"[1]; Tamoxifen 10 mg/kg, Day 21",322.76 ± 88.25 mm^3
same,average tumor volume (M ± m),"[1]; Tamoxifen 30 mg/kg, Day 0",4.1±1.2 mm^3 and 4.14 ± 1.22 mm^3
same,average tumor volume (M ± m),"[1]; Tamoxifen 30 mg/kg, Day 3",17.12 ± 4.12 mm^3
same,average tumor volume (M ± m),"[1]; Tamoxifen 30 mg/kg, Day 7",44.1±8.8 mm^3 and 44.13 ± 8.81 mm^3
same,"TNBC_Kad growth inhibition, TGI","[1]; Tamoxifen 30 mg/kg, Day 10",39.4%
same,average tumor volume (M ± m),"[1]; Tamoxifen 30 mg/kg, Day 10",61.37 ± 12.03 mm^3
same,"TNBC_Kad growth inhibition, TGI","[1]; Tamoxifen 30 mg/kg, Day 14",26.8%
same,average tumor volume (M ± m),"[1]; Tamoxifen 30 mg/kg, Day 14",119.53 ± 18.54 mm^3
same,"TNBC_Kad growth inhibition, TGI","[1]; Tamoxifen 30 mg/kg, Day 17",26.7%
same,average tumor volume (M ± m),"[1]; Tamoxifen 30 mg/kg, Day 17",141.85 ± 35.07 mm^3
same,"TNBC_Kad growth inhibition, TGI","[1]; Tamoxifen 30 mg/kg, Day 21",33.3%
same,average tumor volume (M ± m),"[1]; Tamoxifen 30 mg/kg, Day 21",199.54 ± 43.55 mm^3
same,average tumor volume (M ± m),"[2]; Tamoxifen 10 mg/kg, Day 0",0.7±0.1 mm^3
same,average tumor volume (M ± m),"[2]; Tamoxifen 10 mg/kg, Day 3",1.0 ± 0.3 mm^3
same,"SKBR-3 growth inhibition, TGI","[2]; Tamoxifen 10 mg/kg, Day 7",63.9%
same,average tumor volume (M ± m),"[2]; Tamoxifen 10 mg/kg, Day 7",7.2±3.9 mm^3
same,"SKBR-3 growth inhibition, TGI","[2]; Tamoxifen 10 mg/kg, Day 10",56.9%
same,average tumor volume (M ± m),"[2]; Tamoxifen 10 mg/kg, Day 10",33.4±16.1 mm^3
same,"SKBR-3 growth inhibition, TGI","[2]; Tamoxifen 10 mg/kg, Day 14",60.6%
same,average tumor volume (M ± m),"[2]; Tamoxifen 10 mg/kg, Day 14",47.5±16.8 mm^3
same,"SKBR-3 growth inhibition, TGI","[2]; Tamoxifen 10 mg/kg, Day 17",68.9%
same,average tumor volume (M ± m),"[2]; Tamoxifen 10 mg/kg, Day 17",58.0±18.2 mm^3
same,"SKBR-3 growth inhibition, TGI","[2]; Tamoxifen 10 mg/kg, Day 21",45.4%
same,average tumor volume (M ± m),"[2]; Tamoxifen 10 mg/kg, Day 21",145.5 ± 70.9 mm^3
same,"SKBR-3 growth inhibition, TGI","[2]; Tamoxifen 10 mg/kg, Day 24",9.5%
same,average tumor volume (M ± m),"[2]; Tamoxifen 10 mg/kg, Day 24",211.1 ± 94.0 mm^3
same,average tumor volume (M ± m),"[2]; Tamoxifen 30 mg/kg, Day 0",0.9±0.2 mm^3
same,average tumor volume (M ± m),"[2]; Tamoxifen 30 mg/kg, Day 3",2.0 ± 0.4 mm^3
same,"SKBR-3 growth inhibition, TGI","[2]; Tamoxifen 30 mg/kg, Day 7",6.2%
same,average tumor volume (M ± m),"[2]; Tamoxifen 30 mg/kg, Day 7",18.8±7.4 mm^3
same,"SKBR-3 growth inhibition, TGI","[2]; Tamoxifen 30 mg/kg, Day 10",12.6%
same,average tumor volume (M ± m),"[2]; Tamoxifen 30 mg/kg, Day 10",67.6 ± 21.1 mm^3
same,"SKBR-3 growth inhibition, TGI","[2]; Tamoxifen 30 mg/kg, Day 14",2.9%
same,average tumor volume (M ± m),"[2]; Tamoxifen 30 mg/kg, Day 14",117.1 ± 41.7 mm^3
same,"SKBR-3 growth inhibition, TGI","[2]; Tamoxifen 30 mg/kg, Day 17",−17.1%
same,average tumor volume (M ± m),"[2]; Tamoxifen 30 mg/kg, Day 17",218.3 ± 63.6 mm^3
same,"SKBR-3 growth inhibition, TGI","[2]; Tamoxifen 30 mg/kg, Day 21",−44.2% and −44.4%
same,average tumor volume (M ± m),"[2]; Tamoxifen 30 mg/kg, Day 21",384.8±103.2 mm^3
same,"SKBR-3 growth inhibition, TGI","[2]; Tamoxifen 30 mg/kg, Day 24",−68.1%
same,average tumor volume (M ± m),"[2]; Tamoxifen 30 mg/kg, Day 24",392.1 mm^3
same,antitumor efficacy,"[2]; pilot experiment, Tamoxifen 10 mg/kg",not effective
same,effect on tumor growth,"[2]; pilot experiment, Tamoxifen 10 mg/kg, Days 10 to 17",tumor growth stimulation was recorded
